Reference: patent publication EP0726263A2, “Herbicidal (1,3,4)oxadiazoles and thiadiazoles” (American Cyanamid Company, priority 1995, dated 1996)

Legend:
Type in all cases: in vivo
Galium aparine [1] = assay: Herbicidal activity, postemergence test; details: post; sprayed onto seedling plants, 800 g of active material per hectare; evaluated 2 weeks after treatment
Method: (§1) To evaluate their herbicidal activity, compounds according to the invention are tested using a representative range of plants: TRZAW Triticum aestivum HORVW Hordeum vulgare ZEAMX Zea mays GOSHI Gossypium hirsutum HELAN Helianthus annuus GLYMA Glycine max ALOMY Alopecurus myosuroides SETVI Setaria viridis ECHCG Echinochloa crus-galli GALAP Galium aparine STEME Stellaria media VERPE Veronica persica VIOAR Viola arvensis IPOHE Ipomoea hederacea LAMPU Lamium purpureum PAPRH Papaver rhoeas MATIN Matricaria inodora AMARE Amaranthus retroflexus ABUTH Abutilon theophrasti AMBEL Ambrosia artemisifolia CHEAL Chenopodium album
(§2) The tests fall into two categories, preemergence and postemergence. The preemergence tests involve spraying a liquid formulation of the compound onto the soil in which the seeds have recently been sown. The postemergence tests involve spraying a liquid formulation of the compound onto seedling plants.
(§3) The soil used in the tests is a prepared horticultural loam.
(§4) The formulations used in the tests are prepared from solutions of the test compounds in acetone containing 0.4% by weight of an alkylphenol/ethylene oxide condensate available under the trade mark TRITON X-155. These acetone solutions are diluted with water and the resulting formulations applied at dosage levels corresponding to 800 g of active material per hectare in a volume equivalent to 900 litres per hectare.
(§5) In the preemergence tests untreated sown soil and in the postemergence tests untreated soil bearing seedling plants are used as controls.
(§6) Results of herbicide evaluation are expressed on a rating scale (0-9). The scale is based upon a visual observation of plant stand, vigor, malformation, size, chlorosis, and general plant appearance as compared to a control. Preemergence and postemergence treatments are evaluated at 3 and 2 weeks after treatment, respectively.

Lamium purpureum [2] = assay: Herbicidal activity, postemergence test; details: post; sprayed onto seedling plants, 800 g of active material per hectare; evaluated 2 weeks after treatment
Method: as §1, §2, §3, §4, §5, §6

Chenopodium album [3] = assay: Herbicidal activity, postemergence test; details: post; sprayed onto seedling plants, 800 g of active material per hectare; evaluated 2 weeks after treatment
Method: as §1, §2, §3, §4, §5, §6

Stellaria media [4] = assay: Herbicidal activity, postemergence test; details: post; sprayed onto seedling plants, 800 g of active material per hectare; evaluated 2 weeks after treatment
Method: as §1, §2, §3, §4, §5, §6

Papaver rhoeas [5] = assay: Herbicidal activity, postemergence test; details: post; sprayed onto seedling plants, 800 g of active material per hectare; evaluated 2 weeks after treatment
Method: as §1, §2, §3, §4, §5, §6

Abutilon theophrasti [6] = assay: Herbicidal activity, postemergence test; details: post; sprayed onto seedling plants, 800 g of active material per hectare; evaluated 2 weeks after treatment
Method: as §1, §2, §3, §4, §5, §6

Gossypium hirsutum [7] = assay: Herbicidal activity, postemergence test; details: post; sprayed onto seedling plants, 800 g of active material per hectare; evaluated 2 weeks after treatment
Method: as §1, §2, §3, §4, §5, §6

Ipomoea hederacea [8] = assay: Herbicidal activity, postemergence test; details: post; sprayed onto seedling plants, 800 g of active material per hectare; evaluated 2 weeks after treatment
Method: as §1, §2, §3, §4, §5, §6

Setaria viridis [9] = assay: Herbicidal activity, postemergence test; details: post; sprayed onto seedling plants, 800 g of active material per hectare; evaluated 2 weeks after treatment
Method: as §1, §2, §3, §4, §5, §6

Hordeum vulgare [10] = assay: Herbicidal activity, postemergence test; details: post; sprayed onto seedling plants, 800 g of active material per hectare; evaluated 2 weeks after treatment
Method: as §1, §2, §3, §4, §5, §6

Veronica persica [11] = assay: Herbicidal activity, postemergence test; details: post; sprayed onto seedling plants, 800 g of active material per hectare; evaluated 2 weeks after treatment
Method: as §1, §2, §3, §4, §5, §6

Glycine max [12] = assay: Herbicidal activity, postemergence test; details: post; sprayed onto seedling plants, 800 g of active material per hectare; evaluated 2 weeks after treatment
Method: as §1, §2, §3, §4, §5, §6

Zea mays [13] = assay: Herbicidal activity, postemergence test; details: post; sprayed onto seedling plants, 800 g of active material per hectare; evaluated 2 weeks after treatment
Method: as §1, §2, §3, §4, §5, §6

Triticum aestivum [14] = assay: Herbicidal activity, postemergence test; details: post; sprayed onto seedling plants, 800 g of active material per hectare; evaluated 2 weeks after treatment
Method: as §1, §2, §3, §4, §5, §6

Amaranthus retroflexus [15] = assay: Herbicidal activity, postemergence test; details: post; sprayed onto seedling plants, 800 g of active material per hectare; evaluated 2 weeks after treatment
Method: as §1, §2, §3, §4, §5, §6

Alopecurus myosuroides [16] = assay: Herbicidal activity, postemergence test; details: post; sprayed onto seedling plants, 800 g of active material per hectare; evaluated 2 weeks after treatment
Method: as §1, §2, §3, §4, §5, §6

Matricaria inodora [17] = assay: Herbicidal activity, postemergence test; details: post; sprayed onto seedling plants, 800 g of active material per hectare; evaluated 2 weeks after treatment
Method: as §1, §2, §3, §4, §5, §6

Ambrosia artemisifolia [18] = assay: Herbicidal activity, postemergence test; details: post; sprayed onto seedling plants, 800 g of active material per hectare; evaluated 2 weeks after treatment
Method: as §1, §2, §3, §4, §5, §6

Galium aparine [19] = assay: Herbicidal activity, preemergence test; details: pre; sprayed onto soil, 800 g of active material per hectare; evaluated 3 weeks after treatment
Method: as §1, §2, §3, §4, §5, §6

Lamium purpureum [20] = assay: Herbicidal activity, preemergence test; details: pre; sprayed onto soil, 800 g of active material per hectare; evaluated 3 weeks after treatment
Method: as §1, §2, §3, §4, §5, §6

Chenopodium album [21] = assay: Herbicidal activity, preemergence test; details: pre; sprayed onto soil, 800 g of active material per hectare; evaluated 3 weeks after treatment
Method: as §1, §2, §3, §4, §5, §6

Stellaria media [22] = assay: Herbicidal activity, preemergence test; details: pre; sprayed onto soil, 800 g of active material per hectare; evaluated 3 weeks after treatment
Method: as §1, §2, §3, §4, §5, §6

Papaver rhoeas [23] = assay: Herbicidal activity, preemergence test; details: pre; sprayed onto soil, 800 g of active material per hectare; evaluated 3 weeks after treatment
Method: as §1, §2, §3, §4, §5, §6

Abutilon theophrasti [24] = assay: Herbicidal activity, preemergence test; details: pre; sprayed onto soil, 800 g of active material per hectare; evaluated 3 weeks after treatment
Method: as §1, §2, §3, §4, §5, §6

Gossypium hirsutum [25] = assay: Herbicidal activity, preemergence test; details: pre; sprayed onto soil, 800 g of active material per hectare; evaluated 3 weeks after treatment
Method: as §1, §2, §3, §4, §5, §6

Ipomoea hederacea [26] = assay: Herbicidal activity, preemergence test; details: pre; sprayed onto soil, 800 g of active material per hectare; evaluated 3 weeks after treatment
Method: as §1, §2, §3, §4, §5, §6

Setaria viridis [27] = assay: Herbicidal activity, preemergence test; details: pre; sprayed onto soil, 800 g of active material per hectare; evaluated 3 weeks after treatment
Method: as §1, §2, §3, §4, §5, §6

Hordeum vulgare [28] = assay: Herbicidal activity, preemergence test; details: pre; sprayed onto soil, 800 g of active material per hectare; evaluated 3 weeks after treatment
Method: as §1, §2, §3, §4, §5, §6

Veronica persica [29] = assay: Herbicidal activity, preemergence test; details: pre; sprayed onto soil, 800 g of active material per hectare; evaluated 3 weeks after treatment
Method: as §1, §2, §3, §4, §5, §6

Glycine max [30] = assay: Herbicidal activity, preemergence test; details: pre; sprayed onto soil, 800 g of active material per hectare; evaluated 3 weeks after treatment
Method: as §1, §2, §3, §4, §5, §6

Zea mays [31] = assay: Herbicidal activity, preemergence test; details: pre; sprayed onto soil, 800 g of active material per hectare; evaluated 3 weeks after treatment
Method: as §1, §2, §3, §4, §5, §6

Triticum aestivum [32] = assay: Herbicidal activity, preemergence test; details: pre; sprayed onto soil, 800 g of active material per hectare; evaluated 3 weeks after treatment
Method: as §1, §2, §3, §4, §5, §6

Amaranthus retroflexus [33] = assay: Herbicidal activity, preemergence test; details: pre; sprayed onto soil, 800 g of active material per hectare; evaluated 3 weeks after treatment
Method: as §1, §2, §3, §4, §5, §6

Alopecurus myosuroides [34] = assay: Herbicidal activity, preemergence test; details: pre; sprayed onto soil, 800 g of active material per hectare; evaluated 3 weeks after treatment
Method: as §1, §2, §3, §4, §5, §6

Matricaria inodora [35] = assay: Herbicidal activity, preemergence test; details: pre; sprayed onto soil, 800 g of active material per hectare; evaluated 3 weeks after treatment
Method: as §1, §2, §3, §4, §5, §6

Ambrosia artemisifolia [36] = assay: Herbicidal activity, preemergence test; details: pre; sprayed onto soil, 800 g of active material per hectare; evaluated 3 weeks after treatment
Method: as §1, §2, §3, §4, §5, §6

Compound | GALAP control rating (0-9) (Galium aparine [1]) | LAMPU control rating (0-9) (Lamium purpureum [2]) | CHEAL control rating (0-9) (Chenopodium album [3]) | STEME control rating (0-9) (Stellaria media [4]) | PAPRH control rating (0-9) (Papaver rhoeas [5]) | ABUTH control rating (0-9) (Abutilon theophrasti [6]) | GOSHI control rating (0-9) (Gossypium hirsutum [7]) | IPOHE control rating (0-9) (Ipomoea hederacea [8]) | SETVI control rating (0-9) (Setaria viridis [9]) | HORVW control rating (0-9) (Hordeum vulgare [10]) | VERPE control rating (0-9) (Veronica persica [11]) | GLXMA control rating (0-9) (Glycine max [12]) | ZEAMX control rating (0-9) (Zea mays [13]) | TRZAW control rating (0-9) (Triticum aestivum [14]) | AMARE control rating (0-9) (Amaranthus retroflexus [15]) | ALOMY control rating (0-9) (Alopecurus myosuroides [16]) | MATIN control rating (0-9) (Matricaria inodora [17]) | AMBEL control rating (0-9) (Ambrosia artemisifolia [18]) | GALAP control rating (0-9) (Galium aparine [19]) | LAMPU control rating (0-9) (Lamium purpureum [20]) | other results
C[C@H](NC(=O)c1nnc(-c2ccc(Cl)cc2Cl)o1)c1ccccc1 [Example 26] | 0 (no effect) | 7 (good herbicidal effect) | 5 (definite injury) | 6 (herbicidal effect) | 3 (moderate effect) | 1 (trace effect) | 3 (moderate effect) | 0 (no effect) | 4 (injury) | 0 (no effect) | 3 (moderate effect) | 2 (slight effect) | 0 (no effect) | 0 (no effect) | 8 (approaching complete kill) | 0 (no effect) | 2 (slight effect) | 0 (no effect) | 0 (no effect) | 0 (no effect) | CHEAL control rating (0-9) (Chenopodium album [21]): 0 (no effect); STEME control rating (0-9) (Stellaria media [22]): 0 (no effect); PAPRH control rating (0-9) (Papaver rhoeas [23]): 9 (complete kill); ABUTH control rating (0-9) (Abutilon theophrasti [24]): 0 (no effect); GOSHI control rating (0-9) (Gossypium hirsutum [25]): 0 (no effect); IPOHE control rating (0-9) (Ipomoea hederacea [26]): 0 (no effect); SETVI control rating (0-9) (Setaria viridis [27]): 0 (no effect); HORVW control rating (0-9) (Hordeum vulgare [28]): 0 (no effect); VERPE control rating (0-9) (Veronica persica [29]): 7 (good herbicidal effect); GLXMA control rating (0-9) (Glycine max [30]): 0 (no effect); ZEAMX control rating (0-9) (Zea mays [31]): 0 (no effect); TRZAW control rating (0-9) (Triticum aestivum [32]): 0 (no effect); AMARE control rating (0-9) (Amaranthus retroflexus [33]): 3 (moderate effect); ALOMY control rating (0-9) (Alopecurus myosuroides [34]): 0 (no effect); MATIN control rating (0-9) (Matricaria inodora [35]): 0 (no effect); AMBEL control rating (0-9) (Ambrosia artemisifolia [36]): 0 (no effect)
C[C@H](NC(=O)c1nnc(-c2ccc(Cl)c(Cl)c2)o1)c1ccccc1 [Example 27] | 0 (no effect) | 4 (injury) | 6 (herbicidal effect) | 0 (no effect) | 2 (slight effect) | 0 (no effect) | 2 (slight effect) | 0 (no effect) | 0 (no effect) | 0 (no effect) | 0 (no effect) | 2 (slight effect) | 0 (no effect) | 0 (no effect) | 5 (definite injury) | 0 (no effect) | 0 (no effect) | 0 (no effect) | 0 (no effect) | 0 (no effect) | CHEAL control rating (0-9) (Chenopodium album [21]): 0 (no effect); STEME control rating (0-9) (Stellaria media [22]): 0 (no effect); PAPRH control rating (0-9) (Papaver rhoeas [23]): 3 (moderate effect); ABUTH control rating (0-9) (Abutilon theophrasti [24]): 0 (no effect); GOSHI control rating (0-9) (Gossypium hirsutum [25]): 0 (no effect); IPOHE control rating (0-9) (Ipomoea hederacea [26]): 0 (no effect); SETVI control rating (0-9) (Setaria viridis [27]): 0 (no effect); HORVW control rating (0-9) (Hordeum vulgare [28]): 0 (no effect); VERPE control rating (0-9) (Veronica persica [29]): 3 (moderate effect); GLXMA control rating (0-9) (Glycine max [30]): 0 (no effect); ZEAMX control rating (0-9) (Zea mays [31]): 0 (no effect); TRZAW control rating (0-9) (Triticum aestivum [32]): 0 (no effect); AMARE control rating (0-9) (Amaranthus retroflexus [33]): 0 (no effect); ALOMY control rating (0-9) (Alopecurus myosuroides [34]): 0 (no effect); MATIN control rating (0-9) (Matricaria inodora [35]): 0 (no effect); AMBEL control rating (0-9) (Ambrosia artemisifolia [36]): 0 (no effect)
